In the NIST ThermoML archive (doi:10.1021/je060271a):
± gives the expanded uncertainty stated by the source.

Conditions: 343.15 K, Liquid, Vibrating tube method

Measured: mass density

CCCCCCC(=O)OCC(COC(=O)CCCCCC)(COC(=O)CCCCCC)COC(=O)CCCCCC [pentaerythritol tetraheptanoate]
947.7 ± 1.2 kg/m3: 9491 kPa | 9649.3 kPa | 9777.3 kPa
949.7 ± 1.2 kg/m3: 12394 kPa | 12449 kPa | 12504 kPa | 12530 kPa | 12581 kPa
946.7 ± 1.2 kg/m3: 8220.8 kPa | 8246.2 kPa | 8268.1 kPa | 8290 kPa | 8338.1 kPa | 8361.6 kPa
948 ± 1.2 kg/m3: 9878.1 kPa | 9983.2 kPa | 10124 kPa | 10144 kPa
950.3 ± 1.2 kg/m3: 13189 kPa | 13217 kPa | 13246 kPa | 13275 kPa
946.6 ± 1.2 kg/m3: 7913.5 kPa | 7937 kPa | 7957 kPa | 7977.2 kPa | 8001.2 kPa | 8042.2 kPa | 8088 kPa | 8109.4 kPa | 8130.2 kPa | 8151.8 kPa
949.1 ± 1.2 kg/m3: 11401 kPa | 11469 kPa | 11558 kPa | 11606 kPa | 11697 kPa
948.3 ± 1.2 kg/m3: 10298 kPa | 10352 kPa | 10370 kPa | 10390 kPa | 10425 kPa | 10445 kPa | 10463 kPa | 10520 kPa | 10537 kPa | 10576 kPa
949.8 ± 1.2 kg/m3: 12424 kPa | 12555 kPa | 12664 kPa | 12695 kPa | 12803 kPa
949.6 ± 1.2 kg/m3: 12212 kPa | 12265 kPa | 12314 kPa | 12368 kPa
950.2 ± 1.2 kg/m3: 13035 kPa | 13127 kPa | 13155 kPa
949.3 ± 1.2 kg/m3: 11675 kPa | 11746 kPa | 11794 kPa | 11817 kPa | 11862 kPa | 11939 kPa | 12112 kPa
947.5 ± 1.2 kg/m3: 9110.6 kPa | 9136.4 kPa | 9195.6 kPa | 9222.6 kPa | 9371.4 kPa | 9400.1 kPa
949 ± 1.2 kg/m3: 11310 kPa | 11447 kPa | 11490 kPa | 11649 kPa
950 ± 1.2 kg/m3: 12722 kPa | 12776 kPa | 12894 kPa | 12948 kPa | 12975 kPa
947.1 ± 1.2 kg/m3: 8731.5 kPa | 8755.6 kPa | 8809.9 kPa | 8889.4 kPa
949.5 ± 1.2 kg/m3: 11962 kPa | 12060 kPa | 12088 kPa | 12136 kPa | 12159 kPa | 12188 kPa | 12241 kPa | 12290 kPa | 12344 kPa
947.8 ± 1.2 kg/m3: 9549 kPa | 9679.5 kPa | 9739.8 kPa | 9809 kPa | 9910.3 kPa | 9943.2 kPa
948.7 ± 1.2 kg/m3: 10932 kPa | 10975 kPa | 10994 kPa | 11014 kPa | 11056 kPa | 11160 kPa
946.8 ± 1.2 kg/m3: 8177.7 kPa | 8199.3 kPa | 8384.3 kPa | 8406.7 kPa | 8502.3 kPa
947.9 ± 1.2 kg/m3: 9613.7 kPa | 9709.5 kPa | 9840.2 kPa | 10018 kPa | 10052 kPa
949.2 ± 1.2 kg/m3: 11537 kPa | 11584 kPa | 11627 kPa | 11719 kPa | 11768 kPa | 11840 kPa | 11911 kPa
946.4 ± 1.2 kg/m3: 7850.3 kPa
948.5 ± 1.2 kg/m3: 10613 kPa | 10655 kPa | 10692 kPa | 10710 kPa | 10732 kPa | 10750 kPa
946.9 ± 1.2 kg/m3: 8311.6 kPa | 8433.8 kPa | 8456.2 kPa | 8479.4 kPa | 8530.3 kPa | 8553.5 kPa | 8577.2 kPa
950.4 ± 1.2 kg/m3: 13311 kPa
947.6 ± 1.2 kg/m3: 9337.9 kPa | 9428.6 kPa | 9456.7 kPa | 9519.9 kPa | 9584 kPa
947 ± 1.2 kg/m3: 8605.4 kPa | 8629.1 kPa | 8653.2 kPa | 8683.2 kPa
950.1 ± 1.2 kg/m3: 12834 kPa | 12861 kPa | 12921 kPa | 13007 kPa | 13069 kPa | 13098 kPa
949.4 ± 1.2 kg/m3: 11889 kPa | 11985 kPa | 12012 kPa | 12036 kPa
948.8 ± 1.2 kg/m3: 10832 kPa | 11033 kPa | 11076 kPa | 11096 kPa | 11140 kPa | 11184 kPa | 11204 kPa | 11224 kPa | 11245 kPa | 11269 kPa | 11335 kPa | 11380 kPa
948.2 ± 1.2 kg/m3: 10189 kPa | 10207 kPa | 10244 kPa | 10261 kPa | 10281 kPa | 10315 kPa | 10335 kPa | 10408 kPa | 10481 kPa
948.4 ± 1.2 kg/m3: 10502 kPa | 10558 kPa | 10594 kPa | 10635 kPa | 10673 kPa
947.4 ± 1.2 kg/m3: 9163.7 kPa | 9249.7 kPa | 9282.3 kPa | 9309.7 kPa
948.9 ± 1.2 kg/m3: 11120 kPa | 11289 kPa | 11356 kPa | 11422 kPa | 11511 kPa
949.9 ± 1.2 kg/m3: 12474 kPa | 12612 kPa | 12638 kPa | 12750 kPa
948.1 ± 1.2 kg/m3: 10080 kPa | 10104 kPa | 10169 kPa | 10224 kPa
947.2 ± 1.2 kg/m3: 8702.1 kPa | 8780.3 kPa | 8834.4 kPa | 8914.2 kPa | 8939.2 kPa | 8995.6 kPa
946.5 ± 1.2 kg/m3: 7873.8 kPa | 7893.3 kPa | 8021.7 kPa | 8067.3 kPa
947.3 ± 1.2 kg/m3: 8864.2 kPa | 8970.1 kPa | 9022.5 kPa | 9053.7 kPa | 9079.4 kPa
948.6 ± 1.2 kg/m3: 10769 kPa | 10791 kPa | 10810 kPa | 10851 kPa | 10870 kPa | 10893 kPa | 10909 kPa | 10951 kPa
